Measured values taken from patent publication US20130330412A1, “SMART POLYMERIC NANOPARTICLES WHICH OVERCOME MULTIDRUG RESISTANCE TO CANCER THERAPEUTICS AND TREATMENT-RELATED SYSTEMIC TOXICITY” (THE JOHNS HOPKINS UNIVERSITY, priority 2010, published 2013).

Columns and labels:
[1] = Solubilization of poorly water soluble drugs in water (FIG. 2); assay type: physicochemical; settings: visual
BxPC3 = experiment: In vitro cell viability (MTT) assay with gemcitabine, BxPC3 (FIG. 9); assay type: cell-based, human; settings: BxPC3, 96 hours
Experimental: FIG. 9 illustrates in vitro cell viability (MTT assay) performed using the water-soluble drug gemcitabine conjugated to the acrylic acid (AA) surface reactive functional group of polymeric nanoparticle. Unlike the poorly water drugs that are encapsulated within the nanoparticle, water soluble drugs like gemcitabine can be conjugated to the nanoparticle surface, rendering this compound amenable to oral delivery. Human pancreatic cancer cell line BxPC3 is incubated with increasing dosages of either free gemcitabine (black bar), nano-gemcitabine (white bar), void polymer (grey bar), or PBS solvent (patterned bar). UT=untreated. […] All assays were performed in triplicate and means and standard deviations are plotted.
Gemcitabine is a water soluble compound, and thus differs from the poorly water soluble drugs discussed above that are encapsulated within the hydrophobic core of the polymeric nanoparticles. Herein, we describe the chemical conjugation of gemcitabine, as one illustrative example of water soluble drugs, to the hydrophilic surface of the polymeric nanoparticles. Such conjugation is expected to render gemcitabine amenable to oral delivery, utilizing the oral bioavailability properties of the said polymeric nanoparticles used as a carrier. 10 mg of NMA622 polymeric nanoparticles were dispersed in 10 ml of water by vortexing. […]

C57BL/6 wild-type mice [2] = experiment: Glutathione and glutathione peroxidase (GPx) in mouse heart lysates; assay type: in vivo
Experimental: To evaluate the degree of oxidative stress in treated mice, levels of the antioxidants glutathione and glutathione peroxidase (GPx) were evaluated by western blot and ELISA, respectively, in mouse heart lysates.

[3] = cited from earlier work
C57BL/6 wild-type mice [4] = experiment: Hemoglobin and leukocyte counts in cardiotoxicity study (FIG. 16d); assay type: in vivo; settings: 9 mg/kg DOX equivalent i.v. once weekly for 4 weeks
Source text: C57BL6/J mice received an equivalent weekly cumulative dose of free doxorubicin, commercially available liposomal formulation of doxorubicin (Doxil), NanoDox, NanoDoxCurc, or vehicle only for 4 weeks. One week after the last dose, various cardiac parameters were examined by echocardiogram followed by collection of blood by cardiac puncture. […] (d) Hemoglobin and leukocyte counts from blood samples from each treatment arm.
Blood samples were collected from experimental animals by cardiac puncture and hearts were collected for histological and molecular studies.

[5] = Blood levels of rapamycin 2 hours after oral delivery (FIG. 10); assay type: in vivo, C57/B6 mice; settings: 15 mg/kg rapamycin equivalent, 2 hours post delivery, HPLC
Source text: FIG. 10 illustrates blood levels of rapamycin following oral delivery of polymeric nanoparticles. Rapamycin was encapsulated in nanoparticles comprised of increasing order of acrylic acid (AA) percentage in the co-polymeric composition. The nanoparticles were either administered as is, or after surface PEGylation. Compared are: Control A (rapamycin suspended in water); rapamycin nanoparticle comprised of NIPAAM:VP:AA in a ratio of 60:30:10 (designated as NVA631); rapamycin nanoparticle comprised of NIPAAM:VP:AA in a ratio of 60:20:20 (designated as NVA622); rapamycin nanoparticle comprised of NIPAAM:VP:AA in a ratio of 60:10:30 (designated as NVA613); and rapamycin nanoparticle comprised of NIPAAM:MMA:AA in a ratio of 60:20:20 (designated as NMA622). The corresponding PEGylated nanoparticles (PEG-NVA-631, PEG-NVA-622, PEG-NVA-613, and PEG-NMA-622) encapsulating rapamycin are designated as shaded bars. […] Blood levels are measured by HPLC from samples obtained at 2 hours post oral delivery.
Rapamycin is a poorly water soluble drug that has low oral bioavailability. […] At 2 hours post oral administration, the mice were bled and rapamycin concentrations in the blood were determined by high performance liquid chromatography (HPLC). […]

For `CO[C@H]1/C=C/O[C@@]2(C)Oc3c(C)c(O)c4c(O)c(c(/C=N/N5CCN(C)CC5)c(O)c4c3C2=O)NC(=O)/C(C)=C\C=C\[C@H](C)[C@H](O)[C@@H](C)[C@@H](O)[C@@H](C)[C@H](OC(C)=O)[C@@H]1C` [free rifampicin, rifampicin], which “solubility in water (turbidity / transparency of solution)” value [1] is on record?
The value was “essentially insoluble in water”.

Which “activity in cell viability assay” value (BxPC3) does the source give for `Nc1ccn([C@@H]2O[C@H](CO)[C@@H](O)C2(F)F)c(=O)n1` [free gemcitabine, gemcitabine] here?
The value was “comparable activity”.

Which results are given for `COc1cccc2c1C(=O)c1c(O)c3c(c(O)c1C2=O)C[C@@](O)(C(=O)CO)C[C@@H]3O[C@H]1C[C@H](N)[C@H](O)[C@H](C)O1` [DOX, doxorubicin]?
glutathione level (western blot) (C57BL/6 wild-type mice [2]): marked decrease; glutathione peroxidase (GPx) level (ELISA) (C57BL/6 wild-type mice [2]): marked decrease; patients developing congestive heart failure (CHF) ([3]; cumulative dose of 550 mg/m2): 26%; frequency of CHF in pediatric acute lymphoblastic leukemia (ALL) patients ([3]; pediatric ALL patients): ≤ 57%; Hemoglobin and leukocyte counts (C57BL/6 wild-type mice [4]): reduced; Hemoglobin (Hb) level, average (C57BL/6 wild-type mice [4]; control 12.5 g/dL): 7.5 g/dL

Which “solubility in water (turbidity / transparency of solution)” value [1] does the source give for `CC(=O)O[C@H]1C(=O)[C@@]2(C)[C@H]([C@H](OC(=O)c3ccccc3)[C@]3(O)C[C@H](OC(=O)[C@H](O)[C@@H](NC(=O)c4ccccc4)c4ccccc4)C(C)=C1C3(C)C)[C@]1(OC(C)=O)CO[C@@H]1C[C@@H]2O` [free paclitaxel, paclitaxel] here?
The value was “essentially insoluble in water”.

Which “blood levels of rapamycin” value [5] does the source give for `CO[C@H]1C[C@@H]2CC[C@@H](C)[C@@](O)(O2)C(=O)C(=O)N2CCCC[C@H]2C(=O)O[C@H]([C@H](C)C[C@@H]2CC[C@@H](O)[C@H](OC)C2)CC(=O)[C@H](C)/C=C(\C)[C@@H](O)[C@@H](OC)C(=O)[C@H](C)C[C@H](C)/C=C/C=C/C=C/1C` [free rapamycin, rapamycin] here?
Its value is “essentially undetectable”.

What about the “solubility in water (turbidity / transparency of solution)” value [1] of the same molecule?
Its value is “essentially insoluble in water”.
